What was measured:
Caco-2 NMU1 clone = assay: Cell migration assay (Transwell); type: cell-based, human; conditions: 8 μm Transwell, 3 h, n = 4
Method: Migration and invasion assays were performed using an 8 μm pore size Transwell system (Thermo Fischer Scientific). First, 2 × 10^5 cells, were incubated with CellTracker™ Green CMFDA Dye (Invitrogen) for 30 min at 37 °C with following washing step with PBS. Cells resuspended in 200 ul of growth medium without FBS were added inside the insert fixed in the well with 600 ul medium with 10 % FBS. For invasion assays, the chamber was pre-coated with 1 mg/ml Matrigel (Corning). Cells were incubated for 3 h (migration) or 6 h (invasion) at 37 °C. Cells on the apical side of the chamber were gently scraped off using cotton swabs, filters were washed in PBS and pictures were taken under the microscope Nikon Eclipse TE 2000-U. Pictures analysis was done with the use of FIJI image processing package.

[1] = tested on: ERK1/2 in Caco-2 NMU clones; assay: ERK1/2 kinase activation in Caco-2 NMU clones with inhibitor; type: cell-based, human; conditions: preincubated 1 h with 20 µM inhibitor, immunoblot, n ≥ 4
Method: CRC cells were lysed with RIPA buffer (100 mM TRIS-HCl, pH 7.5, 300 mM NaCl, 0.2 % SDS with 1 % IGEPAL CA-630 and the Halt™ Protease Inhibitor Cocktail (Thermo Fisher Scientific)) with subsequent centrifugation (18,000 x g, 4 °C, 20 min). Total protein concentration in lysate was quantified by BCA method (Pierce BCA Protein Assay; Thermo Fisher Scientific). Samples were loaded and separated by SDS-PAGE (Mini-PROTEAN TGX Stain-Free Gels; Bio-Rad Laboratories, CA, USA) and transferred onto nitrocellulose membranes (Bio-Rad Laboratories). NMU protein was detected with rabbit anti-NMU antibody (Genetex, CA, USA), for ERK1/2 kinases analysis mouse anti-ERK1/2 (Santa Cruz Biotechnology, USA) and rabbit anti-pERK1/2 antibodies (Invitrogen) were used. In EVs (extracellular vesicles) purity analysis we used rabbit antibodies anti-GM130, anti-annexin V and anti-flotilin-1 (Cell Signaling Technologies, Danvers, MA, USA). Proteins used as loading controls were detected by mouse anti-β-actin, mouse anti-α-tubulin or rabbit anti-GAPDH antibody (Abcam, Cambridge, GB). We used secondary HRP-conjugated goat anti-mouse (Santa Cruz Biotechnology) or anti-rabbit antibodies (Invitrogen). The signal was detected by chemiluminescence (Thermo Fisher Scientific) with Kodak BioMax Light Film from Eastman Kodak (NY, USA). […]

Q: Which “Cell migration in the presence of inhibitor” value (Caco-2 NMU1 clone) does the source give for `COc1cccc(-c2cc(=O)c3ccccc3o2)c1N` [PD98059] here?
A: inhibited

Q: What about the “Activity of the ERK1/2 signalling pathway in the presence of inhibitor” value [1] of the same compound?
A: sensitive

Reference: PMC8422652, “Neuromedin U induces an invasive phenotype in CRC cells expressing the NMUR2 receptor” (Journal of Experimental & Clinical Cancer Research : CR, 2021)
